This is an account of results in patent US9173394B2, “Active agent combinations having insecticidal and acaricidal properties” (BAYER INTELLECTUAL PROPERTY GMBH, priority 2007, dated 2015).

One experiment deals with Spodoptera frugiperda. Put plainly: Spodoptera frugiperda larvae test (Example C): sprayed cabbage leaves populated with army worm larvae. Type of experiment: in vivo. To be noted: for Destruction in % after 6 d: Table C second series. The text has this: (§1) Solvent: 78 parts by weight of acetone
The subject of a further experiment is Phaedon cochleariae. Nature of the experiment: Phaedon cochleariae larvae test (Example B): sprayed cabbage leaves populated with mustard beetle larvae.
The subject of a further experiment is Tetranychus urticae. Nature of the experiment: Tetranychus urticae test (OP-resistant/spray treatment) (Example D): infested bean leaf discs. Type of experiment: in vivo. As to the method: as §1
Bean leaf discs (Phaseolus vulgaris) which are infested with all stages of the red spider mite (Tetranychus urticae) are sprayed with an active substance preparation of the desired concentration.
After the desired period of time, the effect is determined in %.

The subject of a further experiment is Myzus persicae. Nature of the experiment: Myzus persicae test (Example A): spray treatment of infested cabbage leaves. In kind it is in vivo. To be noted: Myzus persicae, single active substance.
Description: as §1

[1] abbreviates: Phaedon cochleariae, in Brassica oleracea, 144 h, read-out: Destruction in % after 6 d.

Each structure is given as a SMILES string. Like-named read-outs stand apart in the source and are kept apart here.

For the compound `CN(Cc1cnc(Cl)c(F)c1)C1=CC(=O)OC1` [Compound (I-6), 4-{[(6-chloro-5-fluoropyrid-3-yl)methyl](methyl)amino}furan-2(5H)-one], the “Destruction in % after 6 d” value amounted to 0% in the experiment on Spodoptera frugiperda (0.8 g/ha); 0% in the experiment on Spodoptera frugiperda (20 g/ha); 0% with Phaedon cochleariae (20 g/ha, after 6 d, Table B second series); 0% in the experiment with Tetranychus urticae (4 g/ha); 50% in the experiment on Tetranychus urticae (100 g/ha). Further, the “Destruction in % after 2 d” value in the experiment on Spodoptera frugiperda (4 g/ha, Table C third series) is on record as 0%; with Spodoptera frugiperda (20 g/ha, Table C first series), 0%; with Spodoptera frugiperda (20 g/ha, Table C third series) it was 0%; in the experiment with Phaedon cochleariae (0.8 g/ha, Table B first series), 0%; with Phaedon cochleariae (100 g/ha, Table B third series), 33%; with Tetranychus urticae (0.16 g/ha), 0%. Besides, the “Destruction in % after 2 d” value in the experiment with Tetranychus urticae (20 g/ha) is given as 0%. Further, the pest or weed control at 0.16 g/ha in the experiment on Phaedon cochleariae (setting [1]) is 0%; in the experiment on Myzus persicae (24 h, after 1 d, read-out: Destruction in % after 1 d), 0%; in the experiment on Myzus persicae (144 h, after 6 d, read-out: Destruction in % after 6 d), 0%. In addition, the pest or weed control at 0.8 g/ha worked out at 0% in the experiment with Phaedon cochleariae (setting [1]) and 70% in the experiment with Myzus persicae (144 h, 0.8 g/ha, after 6 d, read-out: Destruction in % after 6 d). In the experiment on Phaedon cochleariae (setting [1]), the pest or weed control at 4 g/ha stood at 0%. Besides, in the experiment with Phaedon cochleariae (setting [1]), the pest or weed control at 20 g/ha is 0%.
